# From patent US7256219B2, “Multifluoro-substituted chalcones and analogs as activators of caspases and inducers of apoptosis and the use thereof” (Cytovia, Inc., priority 2001, dated 2007)
# pEC50: −log10 of the molar value.
# Key:
# T-47D cells [1] = assay: Caspase cascade activation (N-(Ac-DEVD)-N'-ethoxycarbonyl-R110 fluorogenic substrate) in T-47D cells; format: cell-based, Human; conditions: 24 h incubation; for Caspase activity Ratio (net RFU of test compound to that of control): 0.016 to 10 μM final; for pEC50: Homo sapiens, T47D, read-out: Caspase potency EC50
# Method: (§1) Human breast cancer cell lines T-47D and ZR-75-1 were grown according to media component mixtures designated by American Type Culture Collection+10% FCS (Invitrogen Corporation, Life Technologies Division), in a 5% CO2-95% humidity incubator at 37° C. T-47D and ZR-75-1 cells were maintained at a cell density between 50 and 80% confluency at a cell density of 0.1 to 0.6×10^6 cells/ml. Cells were harvested at 600×g and resuspended at 0.65×10^6 cells/ml into appropriate media+10% FCS. An aliquot of […] of cells was added to a well of a 96-well microtiter plate containing 2.5 μl of a 10% DMSO in RPMI-1640 media solution containing 0.16 to 100 μM of 1-[2,5-bis(2,2,2-trifluoroethoxy)phenyl]-3-[4-(trifluoromethyl)phenyl]-2-propen-1-one or other test compound (0.016 to 10 μM final). An aliquot of 22.5 μl of cells was added to a well of a 384-well microtiter plate containing 2.5 μl of a 10% DMSO in RPMI-1640 media solution without test compound as the control sample. The samples were mixed by agitation and then incubated at 37° C. for 24 h in a 5% CO2-95% humidity incubator. After incubation, the samples were removed from the incubator and 25 μl of a solution containing 14 μM of N-(Ac-DEVD)-N′-ethoxycarbonyl-R110 (SEQ. ID NO:1) fluorogenic substrate (Cytovia, Inc.; WO99/18856), 20% sucrose (Sigma), 20 mM DTT (Sigma), 200 mM NaCl (Sigma), 40 mM Na PIPES buffer pH 7.2 (Sigma), and 500 μg/ml lysolecithin (Calbiochem) was added. The samples were mixed by agitation and incubated at room temperature. Using a fluorescent plate reader (Model SpectraMax Gemini, Molecular Devices), an initial reading (T=0) was made approximately 1-2 min after addition of the substrate solution, employing excitation at 485 nm and emission at 530 nm, to determine the background fluorescence of the control sample. After the 3 h incubation, the samples were read for fluorescence as above (T=3 h).
# (§2) The Relative Fluorescence Unit values (RFU) were used to calculate the sample readings as follows: RFU(T=3h)−Control RFU(T=0)=Net RFU(T=3h)
# (§3) The activity of caspase cascade activation was determined by the ratio of the net RFU value for 1-[2,5-bis(2,2,2-trifluoroethoxy)phenyl]-3-[4-(trifluoromethyl)phenyl]-2-propen-1-one or other test compound to that of control samples. The EC50 (nM) was determined by a sigmoidal dose-response response calculation (Prism 2.0, GraphPad Software Inc.).
# ZR-75-1 cells = assay: Caspase cascade activation (N-(Ac-DEVD)-N'-ethoxycarbonyl-R110 fluorogenic substrate) in ZR-75-1 cells; format: cell-based, Human; conditions: ZR-75-1, 24 h incubation; for pEC50: Homo sapiens, read-out: Caspase potency EC50; for Caspase activity Ratio (net RFU of test compound to that of control): 0.016 to 10 μM final
# Method: as §1, §2, §3
# PANC-1 = assay: Inhibition of cell proliferation (GI50), PANC-1; format: cell-based; conditions: Homo sapiens, PANC-1, 48 h
# Method: (§4) All the cell lines were grown according to the conditions recommended by American Type Culture Collection. An aliquot of 90 μl of cells (2.2×10^4 cells/ml) was added to a well of a 96-well microtiter plate containing 10 μl of a 10% DMSO in RPMI-1640 media solution containing 1 nM to 100 μM of 1-[2,5-bis(2,2,2-trifluoroethoxy)phenyl]-3-[4-(trifluoromethyl)phenyl]-2-propen-1-one (0.1 nM to 10 μM final). An aliquot of 90 μl of cells was added to a well of a 96-well microtiter plate containing 10 μl of a 10% DMSO in RPMI-1640 media solution without compound as the control sample for maximal cell proliferation (AMax). The samples were mixed by agitation and then incubated at 37° C. for 48 h in a 5% CO2-95% humidity incubator. After incubation, the samples were removed from the incubator and 20 μl of CellTiter 96 AQUEOUS One Solution Cell Proliferation™ reagent (Promega) was added. […] Using an absorbance plate reader (Model 1420 Wallac Instruments), an initial reading (T=0) was made approximately 1-2 min after addition of the solution, employing absorbance at 490 nm. This determines the possible background absorbance of the test compounds. No absorbance for 1-[2,5-bis(2,2,2-trifluoroethoxy)phenyl]-3-[4-(trifluoromethyl)phenyl]-2-propen-1-one was found at 490 nm. After the 2-4 h incubation, the samples were read for absorbance as above (ATest). […]
# MDA-MB-435 = assay: Inhibition of cell proliferation (GI50), MDA-MB-435; format: cell-based; conditions: Homo sapiens, MDA-MB-435, 48 h
# Method: as §4
# HeLa = assay: Inhibition of cell proliferation (GI50), HeLa; format: cell-based; conditions: Homo sapiens, 48 h
# Method: as §4
# MCF-7 = assay: Inhibition of cell proliferation (GI50), MCF-7; format: cell-based; conditions: Homo sapiens, MCF7; MCF-7, 48 h
# Method: as §4
# K562 = assay: Inhibition of cell proliferation (GI50), K562; format: cell-based; conditions: Homo sapiens, K562, 48 h
# Method: as §4
# PC-3 = assay: Inhibition of cell proliferation (GI50), PC-3; format: cell-based; conditions: Homo sapiens, PC-3, 48 h
# Method: as §4
# DLD-1 = assay: Inhibition of cell proliferation (GI50), DLD-1; format: cell-based; conditions: Homo sapiens, DLD-1, 48 h
# Method: as §4
# T-47D = assay: Inhibition of cell proliferation (GI50), T-47D; format: cell-based; conditions: Homo sapiens, T47D, 48 h
# Method: as §4
# SK-Br-3 = assay: Inhibition of cell proliferation (GI50), SK-Br-3; format: cell-based; conditions: Homo sapiens, SK-BR-3, 48 h
# Method: as §4
# T-47D cells [2] = assay: Cell cycle arrest and apoptosis in T-47D cells (propidium iodide flow cytometry); format: cell-based, Human; conditions: 10 μM
# Method: T-47D, a breast cancer cell line, was maintained and harvested as described in Example 23. […] As a control, cells were also incubated with equivalent amount of solvent (DMSO). Cells were harvested at 1,200 rpm and then transferred to 12×75 mm polystyrene tubes. Cells were then resuspended in 500 μl of 1% Na Citrate, 0.1% Triton X-100, and 50 μg/ml of propidium iodide and incubated at room temperature for 30 min followed by flow cytometer analysis. All flow cytometry analyses were performed on FACScalibur (Becton Dickinson) using Cell Quest analysis software. The x-axis plotted the amount of fluorescence and the y-axis is plotted the number of cells with the indicated fluorescence. […] An increase from 13% to 33% in the sub-diploid DNA content of cells (FIG. 1) is also seen with compound treatment. The sub-diploid amount of DNA is indicative of apoptotic cells which have undergone DNA degradation or fragmentation.
pEC50 (T-47D cells [1]),pEC50 (ZR-75-1 cells),GI50 (PANC-1),GI50 (MDA-MB-435),GI50 (HeLa),GI50 (MCF-7),GI50 (K562),GI50 (PC-3),GI50 (DLD-1),GI50 (T-47D),GI50 (SK-Br-3),Structure (SMILES),Caspase activity Ratio (net RFU of test compound to that of control) (T-47D cells [1]),Caspase activity Ratio (net RFU of test compound to that of control) (ZR-75-1 cells),"sub-diploid DNA content of cells (M1) (T-47D cells [2]; T47D, 24 h, FIG. 1B legend)","G2/M DNA content cells (T-47D cells [2]; T-47D, FIG. 1B)","sub-diploid DNA content of cells (T-47D cells [2]; T-47D, control 13%)"
5.80,5.27,–,–,–,–,–,–,–,–,–,"O=C(C=Cc1ccccc1)c1cc(OCC(F)(F)F)ccc1OCC(F)(F)F [Example 3, 1-[2,5-Bis(2,2,2-trifluoroethoxy)phenyl]-3-phenyl-2-propen-1-one]",6.8,3.3,–,–,–
5.30,5.22,3.1 µM,3.2 µM,2.3 µM,2.4 µM,2.2 µM,3 µM,2.5 µM,1.5 µM,1.8 µM,"O=C(C=Cc1ccc(C(F)(F)F)cc1)c1cc(OCC(F)(F)F)ccc1OCC(F)(F)F [Example 4, 1-[2,5-Bis(2,2,2-trifluoroethoxy)phenyl]-3-[4-(trifluoromethyl)phenyl]-2-propen-1-one]",25.2,5.5,increase of sub-diploid DNA content of cells,increase in G2/M DNA content cells,33%
5.17,5.16,–,–,–,–,–,–,–,–,–,"O=C(C=Cc1ccc([N+](=O)[O-])cc1)c1cc(OCC(F)(F)F)ccc1OCC(F)(F)F [Example 15, 1-[2,5-Bis(2,2,2-trifluoroethoxy)phenyl]-3-(4-nitrophenyl)-2-propen-1-one]",20.4,14.9,–,–,–
